Read-outs that look alike come from different tables or passages of the source. Bridge positions count the residues as written; N and C are the ends. Square brackets hold non-standard residues; d marks the D form. Peptide text beside a SMILES is read from it. dPhe(4-F) = N[C@H](Cc1ccc(F)cc1)C(=O)O
Key:
Format in all cases: cell-based
MC1R = MC1R (Homo sapiens, UniProt Q01726); assay: cAMP assay (β-galactosidase reporter, cAMP Hunter), MC1R; details: for Ratios of EC50 values MC ¼: EC50(MC1R)/EC50(MC4R)
MC1R, sequence (Q01726 whole entry): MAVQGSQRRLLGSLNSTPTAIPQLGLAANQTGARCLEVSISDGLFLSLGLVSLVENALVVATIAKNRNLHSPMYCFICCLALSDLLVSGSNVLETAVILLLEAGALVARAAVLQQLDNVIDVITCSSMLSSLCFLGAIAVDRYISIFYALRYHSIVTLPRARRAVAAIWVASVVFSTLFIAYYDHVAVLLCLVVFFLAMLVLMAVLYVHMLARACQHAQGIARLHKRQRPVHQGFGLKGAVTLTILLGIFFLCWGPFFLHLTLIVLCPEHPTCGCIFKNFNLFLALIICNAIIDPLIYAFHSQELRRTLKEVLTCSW
From the text: (§1) cAMP Accumulation Measurement Via a β-Galactosidase (β-Gal) Reporter System
(§2) A chemiluminescence readout system that uses an enzyme fragment complementation (EFC) system with β-galactosidase (β-Gal) as the functional reporter system was used. This assay system for various melanocortin receptor systems is commercially available (cAMP Hunter GPCR assay system, Discoverx Corp, Fremont, Calif.). This assay utilizes the β-Gal enzyme that is split into two complementary portions; EA for Enzyme Acceptor and ED for Enzyme Donor. In the assay, the ED portion fused to cAMP is made to compete with cAMP generated by cells for binding to a cAMP-specific antibody. The EA is then added to form active β-Gal with any unbound ED-cAMP.
(§3) Briefly, 10000 cells per well are plated overnight and each well (cells incubated with 10 μl assay buffer) is then incubated with 4× serial concentration of the test compound in the cell assay buffer (5 μL) and cAMP antibody reagent (5 μL) for 30 min at 37° C. The cell lysis buffer (20 μL) containing ED-cAMP coupled enzyme fragment and the reporter substrate (Emerald II-Galacton Star, 5:1) is then added and incubated for 60 min at room temperature. Next, 20 μL of EA β-Gal fragment reagent is added.

MC3R = MC3R (Homo sapiens, UniProt P41968); assay: cAMP assay (β-galactosidase reporter, cAMP Hunter), MC3R; details: for Ratios of EC50 values MC ¾: EC50(MC3R)/EC50(MC4R)
MC3R, sequence (P41968 whole entry): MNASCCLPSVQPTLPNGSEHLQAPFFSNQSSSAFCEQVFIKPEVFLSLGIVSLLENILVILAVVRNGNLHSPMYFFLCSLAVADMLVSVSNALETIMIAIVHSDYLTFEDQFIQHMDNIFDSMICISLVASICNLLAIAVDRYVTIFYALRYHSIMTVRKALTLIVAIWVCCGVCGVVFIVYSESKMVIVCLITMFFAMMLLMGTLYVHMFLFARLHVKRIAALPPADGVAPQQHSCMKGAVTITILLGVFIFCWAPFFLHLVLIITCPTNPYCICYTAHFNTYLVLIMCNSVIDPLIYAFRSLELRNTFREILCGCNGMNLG
From the text: as §1, §2, §3

MC4R = MC4R (Homo sapiens, UniProt P32245); assay: cAMP assay (β-galactosidase reporter, cAMP Hunter), MC4R
MC4R, sequence (P32245 whole entry): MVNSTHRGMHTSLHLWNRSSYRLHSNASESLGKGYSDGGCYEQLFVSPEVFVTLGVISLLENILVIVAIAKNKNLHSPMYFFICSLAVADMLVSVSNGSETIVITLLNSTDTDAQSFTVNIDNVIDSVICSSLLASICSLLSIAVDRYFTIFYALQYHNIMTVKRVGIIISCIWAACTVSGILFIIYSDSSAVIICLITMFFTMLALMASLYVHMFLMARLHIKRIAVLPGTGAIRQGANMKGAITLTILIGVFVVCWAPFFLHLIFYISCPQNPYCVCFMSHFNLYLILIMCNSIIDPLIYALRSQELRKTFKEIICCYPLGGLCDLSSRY
From the text: as §1, §2, §3

MC5R = MC5R (Homo sapiens, UniProt P33032); assay: cAMP assay (β-galactosidase reporter, cAMP Hunter), MC5R; details: for Ratios of EC50 values MC 5/4: EC50(MC5R)/EC50(MC4R)
MC5R, sequence (P33032 whole entry): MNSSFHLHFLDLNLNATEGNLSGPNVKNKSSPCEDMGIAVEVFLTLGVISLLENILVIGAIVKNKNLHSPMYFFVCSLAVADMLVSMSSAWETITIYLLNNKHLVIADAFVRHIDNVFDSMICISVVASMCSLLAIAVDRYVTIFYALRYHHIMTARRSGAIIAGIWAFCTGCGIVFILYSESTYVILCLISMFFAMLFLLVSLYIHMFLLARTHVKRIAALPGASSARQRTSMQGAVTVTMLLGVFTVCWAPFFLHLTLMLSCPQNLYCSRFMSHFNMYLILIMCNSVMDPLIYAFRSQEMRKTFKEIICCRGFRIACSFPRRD
From the text: as §1, §2, §3

[1] = agonist cAMP stimulation, read-out: cAMP Assay (EC-50) MC1R
[2] = agonist cAMP stimulation, read-out: cAMP Assay (EC-50) MC3R
[3] = agonist cAMP stimulation, read-out: cAMP Assay (EC-50) MC4R
[4] = agonist cAMP stimulation, read-out: cAMP Assay (EC-50) MC5R
[5] = agonist cAMP stimulation, in uM, read-out: cAMP Assay (EC-50) MC3R

Compound | Ratios of EC50 values MC ¼ (MC1R) | EC50 (MC1R; [1]) [nM] | Ratios of EC50 values MC ¾ (MC3R) | EC50 (MC3R; [2]) [µM] | EC50 (MC4R; [3]) [nM] | Ratios of EC50 values MC 5/4 (MC5R) | EC50 (MC5R; [4]) [nM] | EC50 (MC1R) [nM] | EC50 (MC3R) [µM] | EC50 (MC4R) [nM] | EC50 (MC5R) [nM] | EC50 (MC3R; [5]) [µM]
CC(=O)N[C@@H](CCCNC(=N)N)C(=O)N[C@H]1CSSC[C@@H](C(N)=O)NC(=O)[C@H](Cc2c[nH]c3ccccc23)NC(=O)[C@H](CCCNC(=N)N)NC(=O)[C@@H](Cc2ccccc2)NC(=O)[C@H](Cc2c[nH]cn2)NC(=O)[C@@H](CC(C)C)NC1=O [Compound 1, Ac-Arg-cyclo[Cys-D-Leu-His-D-Phe-Arg-Trp-Cys]-NH2] | 0.68 | 0.47 | 1.13 | 0.00079 | 0.7 | 130 | 91 | – | – | – | – | –
CC[C@@H](C)[C@H]1NC(=O)[C@@H](NC(=O)[C@H](CCCNC(=N)N)NC(C)=O)CSSC[C@@H](C(N)=O)NC(=O)[C@H](Cc2c[nH]c3ccccc23)NC(=O)[C@H](CCCNC(=N)N)NC(=O)[C@@H](Cc2ccccc2)NC(=O)[C@H](Cc2c[nH]cn2)NC1=O [Compound 2, Ac-Arg-cyclo[Cys-D-Ile-His-D-Phe-Arg-Trp-Cys]-NH2] | 0.69 | 0.69 | 0.96 | 0.00096 | 1 | 420 | 420 | – | – | – | – | –
CC(=O)N[C@@H](CCCNC(=N)N)C(=O)N[C@H]1CSSC[C@@H](C(N)=O)NC(=O)[C@H](Cc2c[nH]c3ccccc23)NC(=O)[C@H](CCCNC(=N)N)NC(=O)[C@@H](Cc2ccccc2)NC(=O)[C@H](Cc2c[nH]cn2)NC(=O)[C@@H](C(C)(C)C)NC1=O [Compound 3, Ac-Arg-cyclo[Cys-D-Tle-His-D-Phe-Arg-Trp-Cys]-NH2] | 1 | 1 | 1 | 0.0007 | 0.7 | 930 | 672 | – | – | – | – | –
CC(=O)N[C@@H](CCCNC(=N)N)C(=O)N[C@H]1CSSC[C@@H](C(N)=O)NC(=O)[C@H](Cc2c[nH]c3ccccc23)NC(=O)[C@H](CCCNC(=N)N)NC(=O)[C@@H](Cc2ccccc2)NC(=O)[C@H](Cc2c[nH]cn2)NC(=O)[C@@H](C(C)C)NC1=O [Compound 4, Ac-Arg-cyclo[Cys-D-Val-His-D-Phe-Arg-Trp-Cys]-NH2] | 0.93 | 1.25 | 1.19 | 0.00159 | 1.34 | 584 | 782 | – | – | – | – | –
CC(=O)N[C@@H](CCCNC(=N)N)C(=O)N[C@H]1CSSC[C@@H](C(N)=O)NC(=O)[C@H](Cc2c[nH]c3ccccc23)NC(=O)[C@H](CCCNC(=N)N)NC(=O)[C@@H](Cc2ccccc2)NC(=O)[C@H](Cc2cncn2C)NC(=O)[C@@H](C)NC1=O [Compound 5, Ac-Arg-cyclo[Cys-D-Ala-His(3-Me)-D-Phe-Arg-Trp-Cys]-NH2] | 4 | – | 350 | – | – | 945 | – | 4.1 | 0.406 | 1.15 | 1080 | –
CC(=O)N[C@@H](CCCNC(=N)N)C(=O)N[C@H]1CSSC[C@@H](C(N)=O)NC(=O)[C@H](Cc2c[nH]c3ccccc23)NC(=O)[C@H](CCCNC(=N)N)NC(=O)[C@@H](Cc2ccccc2)NC(=O)[C@H](Cc2cn(C)cn2)NC(=O)[C@@H](C)NC1=O [Compound 6, Ac-Arg-cyclo[Cys-D-Ala-His(1-Me)-D-Phe-Arg-Trp-Cys]-NH2] | 40 | – | 6 | – | – | 662 | – | 30.4 | 0.0043 | 0.7 | 467 | –
CC(=O)N[C@@H](CCCNC(=N)N)C(=O)N[C@H]1CSSC[C@@H](C(N)=O)NC(=O)[C@H](Cc2c[nH]c3ccccc23)NC(=O)[C@H](CCCNC(=N)N)NC(=O)[C@@H](Cc2ccccc2)NC(=O)[C@H](Cc2c[nH]c3ccccc23)NC(=O)[C@@H](C)NC1=O [Compound 7, Ac-Arg-cyclo[Cys-D-Ala-Trp-D-Phe-Arg-Trp-Cys ]-NH2] (Ac-RC[dA]W[dF]RWC-NH2; disulfide 2-8) | 8 | 273 | >290 | – | 34 | 7 | 259 | – | – | – | – | > 10
CC(=O)N[C@@H](CCCNC(=N)N)C(=O)N[C@H]1CSSC[C@@H](C(N)=O)NC(=O)[C@H](Cc2c[nH]c3ccccc23)NC(=O)[C@H](CCCNC(=N)N)NC(=O)[C@@H](Cc2ccccc2)NC(=O)[C@H](CCC(N)=O)NC(=O)[C@@H](C)NC1=O [Compound 8, Ac-Arg-cyclo[Cys-D-Ala-Gln-D-Phe-Arg-Trp-Cys]-NH2] (Ac-RC[dA]Q[dF]RWC-NH2; disulfide 2-8) | 40 | 71 | 5 | 0.0086 | 1.6 | 155 | 255 | – | – | – | – | –
CC(=O)N[C@@H](CCCNC(=N)N)C(=O)N[C@H]1CSSC[C@@H](C(N)=O)NC(=O)[C@H](Cc2c[nH]c3ccccc23)NC(=O)[C@H](CCCNC(=N)N)NC(=O)[C@@H](Cc2ccccc2)NC(=O)[C@H](CC(N)=O)NC(=O)[C@@H](C)NC1=O [Compound 9, Ac-Arg-cyclo[Cys-D-Ala-Asn-D-Phe-Arg-Trp-Cys]-NH2] (Ac-RC[dA]N[dF]RWC-NH2; disulfide 2-8) | 90 | 248 | 30 | 0.081 | 3 | 530 | 1490 | – | – | – | – | –
CC(=O)N[C@@H](CCCNC(=N)N)C(=O)N[C@H]1CSSC[C@@H](C(N)=O)NC(=O)[C@H](Cc2c[nH]c3ccccc23)NC(=O)[C@H](CCCNC(=N)N)NC(=O)[C@@H](Cc2ccccc2)NC(=O)[C@H](CCCNC(=N)N)NC(=O)[C@@H](C)NC1=O [Compound 10, Ac-Arg-cyclo[Cys-D-Ala-Arg-D-Phe-Arg-Trp-Cys]-NH2] (Ac-RC[dA]R[dF]RWC-NH2; disulfide 2-8) | 2.31 | 6.2 | 1.45 | 0.0039 | 2.7 | – | – | – | – | – | – | –
CC(=O)N[C@@H](CCCNC(=N)N)C(=O)N[C@H]1CSSC[C@@H](C(N)=O)NC(=O)[C@H](Cc2c[nH]c3ccccc23)NC(=O)[C@H](CCCNC(=N)N)NC(=O)[C@@H](Cc2ccccc2)NC(=O)[C@H](Cc2ccc(O)cc2)NC(=O)[C@@H](C)NC1=O [Compound 11, Ac-Arg-cyclo[Cys-D-Ala-Tyr-D-Phe-Arg-Trp-Cys]-NH2] (Ac-RC[dA]Y[dF]RWC-NH2; disulfide 2-8) | 6.67 | 301 | >22.2 | > 1 | 45.1 | – | – | – | – | – | – | –
CC(=O)N[C@@H](CCCNC(=N)N)C(=O)N[C@H]1CSSC[C@@H](C(N)=O)NC(=O)[C@H](Cc2c[nH]c3ccccc23)NC(=O)[C@H](CCCNC(=N)N)NC(=O)[C@@H](Cc2ccccc2)NC(=O)[C@@H]2CCCN2C(=O)[C@@H](C)NC1=O [Compound 13, Ac-Arg-cyclo[Cys-D-Ala-Pro-D-Phe-Arg-Trp-Cys]-NH2] (Ac-RC[dA]P[dF]RWC-NH2; disulfide 2-8) | 5 | 280 | >200 | – | 56 | 13 | 707 | – | – | – | – | > 10
CC(=O)N[C@@H](CCCNC(=N)N)C(=O)N[C@H]1CSSC[C@@H](C(N)=O)NC(=O)[C@H](Cc2c[nH]c3ccccc23)NC(=O)[C@H](CCCNC(=N)N)NC(=O)[C@@H](Cc2ccc(F)cc2)NC(=O)[C@@H]2CCCN2C(=O)[C@@H](C)NC1=O [Compound 14, Ac-Arg-cyclo[Cys-D-Ala-Pro-D-Phe(p-F)-Arg-Trp-Cys]-NH2] (Ac-RC[dA]P[dPhe(4-F)]RWC-NH2; disulfide 2-8) | 7 | 169 | >400 | – | 24 | 12 | 283 | – | – | – | – | > 10

Reference: patent US10196425B2, “Peptide compositions” (RHYTHM PHARMACEUTICALS, INC., priority 2013, dated 2019)
